Tested on: KedF
Assay: continuous spectrophotometric assay with periodate, […] nm
Format: biochemical, Streptoalloteichus sp. ATCC 53650
Conditions: 50 mM phosphate pH 8.0, 25 °C, 3 mM sodium periodate

Row | Compound | Km (9.6 μM KedF) [µM] | Km (4.0 μM KedF) [µM]
1 | c1ccc([C@@H]2CO2)cc1 [(R)-styrene oxide] | 3500 ± 640 | –
2 | c1ccc([C@H]2CO2)cc1 [(S)-styrene oxide] | – | 910 ± 100

Source: article PMC3711097 (Molecular bioSystems, 2013)
